Values quoted from earlier work, collected in patent publication US12472158B2, “Methods of treating trigeminal nerve pain” (Vanderbilt University, priority 2019, dated 2025).

Experiments:
[1] = test system: contraction of the nictitating membrane in cats; details: i.v., dose giving 50% reduction of the nictitating membrane contraction
[2] = test system: rat model
[3] = test system: goat model; details: for duration of antinociceptive effect: intrathecal
[4] = molecular target: T1, α-2A adrenergic receptor (Homo sapiens, UniProt P08913); details: α-2A vs α-2B and α-2C
T1 sequence (P08913 1-465): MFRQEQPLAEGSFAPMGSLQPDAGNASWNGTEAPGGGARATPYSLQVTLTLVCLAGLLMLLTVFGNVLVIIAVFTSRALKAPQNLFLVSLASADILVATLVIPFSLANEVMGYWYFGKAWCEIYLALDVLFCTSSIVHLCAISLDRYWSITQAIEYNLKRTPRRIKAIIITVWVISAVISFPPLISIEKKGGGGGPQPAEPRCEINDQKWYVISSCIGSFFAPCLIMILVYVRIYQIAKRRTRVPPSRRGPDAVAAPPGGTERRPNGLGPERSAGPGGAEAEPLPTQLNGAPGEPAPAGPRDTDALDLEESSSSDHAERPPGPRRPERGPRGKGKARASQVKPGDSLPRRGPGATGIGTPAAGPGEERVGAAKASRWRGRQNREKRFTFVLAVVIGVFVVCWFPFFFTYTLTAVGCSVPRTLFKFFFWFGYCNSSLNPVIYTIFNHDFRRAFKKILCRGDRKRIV

[5] = test system: subarachnoid space; details: 75 mcg in 15 μl saline, intrathecal route
[6] = among the alpha-2 agonists
[7] = lidocaine alone (active control group); medical literature and expert opinion

Cc1cccc(C)c1CC(=O)NC(=N)N [2,6-dimethylphenyl-acetyl-guanidine]
Reduction of the neck sympathicus stimulus ED50 [1]: 1.0 mg/kg

Clc1cccc(Cl)c1N=C1NCCN1 [clonidine]
time for anti-nociceptive effect to decline to baseline ([2]; rat model, injection 50 mcg): ≤ 4 h | duration of antinociceptive effect [3]: 5 h

Cl.N=C(N)NC(=O)Cc1c(Cl)cccc1Cl [guanfacine, N-amidino-2-(2,6-dichlorophenyl) acetamide]
rate of elimination from spinal cord tissue ([2]; compared to clonidine): lower rate of elimination | duration of anti-nociceptive effect ([2]; rat model, intrathecal, both 25 mcg and 50 mcg): greater than 18 h | affinity for α-2A adrenergic receptor compared to α-2B and α-2C adrenergic receptor [4]: 15- to 20 fold | Reduction of the neck sympathicus stimulus ED50 [1]: 0.3 mg/kg | toxicity in the subarachnoid space [5]: nontoxic | rate of sedation [6]: lowest rate of sedation | elimination half-life (in vivo): ~17 h | oral bioavailability (oral): around 80% | renal excretion (share of elimination): ~50% | elimination from spinal cord tissue ([3]; compared with clonidine): slower elimination | duration of antinociceptive effect [3]: 8 h

CCN(CC)CC(=O)Nc1c(C)cccc1C [lidocaine]
mean duration of pain relief [7]: approximately 140 minutes
